Measurements as given in ChEMBL document CHEMBL3885881, “DrugMatrix”.

Columns and labels:
[1] = organism: Rattus norvegicus; assay: DrugMatrix - Regimen: Daily Repeat; assay type: toxicity, organism-based, Sprague-Dawley; design: regimen Daily Repeat, gender Male, age 6-8 weeks; settings: in vivo, po, 75 mg/kg, route oral GAVAGE, dose level High, vehicle .5 % CMC; for ABSOLUTE BASOPHIL / ABSOLUTE EOSINOPHIL / ABSOLUTE LYMPHOCYTE / ABSOLUTE MONOCYTE / ABSOLUTE SEGMENTED NEUTROPHIL / BASOPHIL / EOSINOPHIL / ERYTHROCYTE COUNT / HEMATOCRIT / HEMOGLOBIN / LEUKOCYTE COUNT / LYMPHOCYTE / MEAN CORPUSCULAR HEMOGLOBIN / MEAN CORPUSCULAR HEMOGLOBIN CONCENTRATION / MEAN CORPUSCULAR VOLUME / MONOCYTE / NEUTROPHIL / NUCLEATED RED BLOOD CELLS / PLATELET COUNT: tissue Blood; for ALANINE AMINOTRANSFERASE / ALBUMIN / ALKALINE PHOSPHATASE / ASPARTATE AMINOTRANSFERASE / BLOOD UREA NITROGEN / CARBON DIOXIDE / CHLORIDE / CHOLESTEROL / CREATININE / GLUCOSE / LACTATE DEHYDROGENASE / LIPASE / PHOSPHORUS / POTASSIUM / SODIUM / TOTAL BILIRUBIN / TOTAL PROTEIN / URIC ACID: tissue Plasma
[2] = organism: Rattus norvegicus; assay type: toxicity, organism-based, Sprague-Dawley; settings: in vivo, po, 75 mg/kg, 24 h, route oral GAVAGE, dose level High, time 1 day, vehicle .5 % CMC
Description: DrugMatrix - Regimen: Single

## Nc1ccc(Cl)cc1 [4-CHLOROANILINE]
[1]; 72 h, time 3 day
  ABSOLUTE BASOPHIL: 0 CELLS/uL
  ABSOLUTE EOSINOPHIL: 340 CELLS/uL
  ABSOLUTE LYMPHOCYTE: 18564 CELLS/uL
  ABSOLUTE MONOCYTE: 396 CELLS/uL
  ABSOLUTE SEGMENTED NEUTROPHIL: 3900 CELLS/uL
  BASOPHIL: 0%
  EOSINOPHIL: 1.67%
  ERYTHROCYTE COUNT: 5.42 x10E6/uL
  HEMATOCRIT: 35.1%
  HEMOGLOBIN: 13.57 G/DL
  LEUKOCYTE COUNT: 27.87 x10E3/uL
  LYMPHOCYTE: 79.33%
  MEAN CORPUSCULAR HEMOGLOBIN: 25.13 pg
  MEAN CORPUSCULAR HEMOGLOBIN CONCENTRATION: 38.77 G/DL
  MEAN CORPUSCULAR VOLUME: 64.77 fL
  MONOCYTE: 1.67%
  NEUTROPHIL: 17.33%
  NUCLEATED RED BLOOD CELLS: 1 /100WBC
  PLATELET COUNT: 1129 x10E3/uL
  ALANINE AMINOTRANSFERASE: 48.33 u/L
  ALBUMIN: 4.23 G/DL
  ALKALINE PHOSPHATASE: 297 u/L
  ASPARTATE AMINOTRANSFERASE: 88.67 u/L
  BLOOD UREA NITROGEN: 14.67 mg/dL
  CARBON DIOXIDE: 26.67 mmol/L
  CHLORIDE: 104 MEQ/L
  CHOLESTEROL: 52.67 mg/dL
  CREATININE: 0.27 mg/dL
  GLUCOSE: 226.33 mg/dL
  LACTATE DEHYDROGENASE: 200 u/L
  LIPASE: 9.67 u/L
  PHOSPHORUS: 13.43 mg/dL
  POTASSIUM: 6.55 MEQ/L
  SODIUM: 147 MEQ/L
  TOTAL BILIRUBIN: 0.23 mg/dL
  TOTAL PROTEIN: 6.3 G/DL
  URIC ACID: 2.03 mg/dL
[1]; 120 h, time 5 day
  ABSOLUTE BASOPHIL: 0 CELLS/uL
  ABSOLUTE EOSINOPHIL: 666.67 CELLS/uL
  ABSOLUTE LYMPHOCYTE: 19854.67 CELLS/uL
  ABSOLUTE MONOCYTE: 430.67 CELLS/uL
  ABSOLUTE SEGMENTED NEUTROPHIL: 5848 CELLS/uL
  BASOPHIL: 0%
  EOSINOPHIL: 2.33%
  ERYTHROCYTE COUNT: 4.48 x10E6/uL
  HEMATOCRIT: 32.57%
  HEMOGLOBIN: 13.73 G/DL
  LEUKOCYTE COUNT: 26.8 x10E3/uL
  LYMPHOCYTE: 74%
  MEAN CORPUSCULAR HEMOGLOBIN: 30.77 pg
  MEAN CORPUSCULAR HEMOGLOBIN CONCENTRATION: 42.2 G/DL
  MEAN CORPUSCULAR VOLUME: 72.87 fL
  MONOCYTE: 1.67%
  NEUTROPHIL: 22%
  NUCLEATED RED BLOOD CELLS: 1.33 /100WBC
  PLATELET COUNT: 1147 x10E3/uL
  ALANINE AMINOTRANSFERASE: 61.33 u/L
  ALBUMIN: 4.23 G/DL
  ALKALINE PHOSPHATASE: 360.33 u/L
  ASPARTATE AMINOTRANSFERASE: 93.67 u/L
  BLOOD UREA NITROGEN: 13 mg/dL
  CARBON DIOXIDE: 31.33 mmol/L
  CHLORIDE: 102.33 MEQ/L
  CHOLESTEROL: 64.67 mg/dL
  CREATININE: 0.2 mg/dL
  GLUCOSE: 157.33 mg/dL
  LACTATE DEHYDROGENASE: 180.67 u/L
  LIPASE: 9 u/L
  PHOSPHORUS: 11.23 mg/dL
  POTASSIUM: 6.43 MEQ/L
  SODIUM: 148.33 MEQ/L
  TOTAL BILIRUBIN: 0.43 mg/dL
  TOTAL PROTEIN: 6.23 G/DL
  URIC ACID: 1.87 mg/dL
[1]; […], time 14 day
  ABSOLUTE BASOPHIL: 0 CELLS/uL
  ABSOLUTE EOSINOPHIL: 83.2 CELLS/uL
  ABSOLUTE LYMPHOCYTE: 19196.8 CELLS/uL
  ABSOLUTE MONOCYTE: 524.8 CELLS/uL
  ABSOLUTE SEGMENTED NEUTROPHIL: 2275.2 CELLS/uL
  BASOPHIL: 0%
  EOSINOPHIL: 0.4%
  ERYTHROCYTE COUNT: 3.73 x10E6/uL
  HEMATOCRIT: 34.9%
  HEMOGLOBIN: 13.26 G/DL
  LEUKOCYTE COUNT: 22.08 x10E3/uL
  LYMPHOCYTE: 86.8%
  MEAN CORPUSCULAR HEMOGLOBIN: 35.82 pg
  MEAN CORPUSCULAR HEMOGLOBIN CONCENTRATION: 38.02 G/DL
  MEAN CORPUSCULAR VOLUME: 94.18 fL
  MONOCYTE: 2.4%
  NEUTROPHIL: 10.4%
  NUCLEATED RED BLOOD CELLS: 1 /100WBC
  PLATELET COUNT: 846.6 x10E3/uL
  ALANINE AMINOTRANSFERASE: 56.6 u/L
  ALBUMIN: 4.38 G/DL
  ALKALINE PHOSPHATASE: 320.6 u/L
  ASPARTATE AMINOTRANSFERASE: 128 u/L
  BLOOD UREA NITROGEN: 15.4 mg/dL
  CARBON DIOXIDE: 29.8 mmol/L
  CHLORIDE: 103.2 MEQ/L
  CHOLESTEROL: 57 mg/dL
  CREATININE: 0.22 mg/dL
  GLUCOSE: 123.8 mg/dL
  LACTATE DEHYDROGENASE: 440.6 u/L
  LIPASE: 9.6 u/L
  PHOSPHORUS: 10.5 mg/dL
  POTASSIUM: 6.12 MEQ/L
  SODIUM: 148.96 MEQ/L
  TOTAL BILIRUBIN: 0.54 mg/dL
  TOTAL PROTEIN: 6.16 G/DL
  URIC ACID: 1.72 mg/dL
[2]; tissue Blood
  ABSOLUTE EOSINOPHIL: 269 CELLS/uL
  ABSOLUTE LYMPHOCYTE: 17566.67 CELLS/uL
  ABSOLUTE MONOCYTE: 600.33 CELLS/uL
  ABSOLUTE SEGMENTED NEUTROPHIL: 3397.33 CELLS/uL
  BASOPHIL: 0%
  EOSINOPHIL: 1.33%
  ERYTHROCYTE COUNT: 5.88 x10E6/uL
  HEMATOCRIT: 36.53%
  HEMOGLOBIN: 13.03 G/DL
  LEUKOCYTE COUNT: 21.83 x10E3/uL
  LYMPHOCYTE: 81.67%
  MEAN CORPUSCULAR HEMOGLOBIN: 22.17 pg
  MEAN CORPUSCULAR HEMOGLOBIN CONCENTRATION: 35.7 G/DL
  MEAN CORPUSCULAR VOLUME: 62.13 fL
  MONOCYTE: 2.67%
  NEUTROPHIL: 14.33%
  NUCLEATED RED BLOOD CELLS: 0 /100WBC
  PLATELET COUNT: 950.67 x10E3/uL
[2]; tissue Plasma
  ALANINE AMINOTRANSFERASE: 53 u/L
  ALBUMIN: 4.37 G/DL
  ALKALINE PHOSPHATASE: 533.33 u/L
  ASPARTATE AMINOTRANSFERASE: 101 u/L
  BLOOD UREA NITROGEN: 13.67 mg/dL
  CARBON DIOXIDE: 25.67 mmol/L
  CHLORIDE: 102.33 MEQ/L
  CHOLESTEROL: 75.33 mg/dL
  CREATININE: 0.19 mg/dL
  GLUCOSE: 168 mg/dL
  LACTATE DEHYDROGENASE: 480 u/L
  LIPASE: 9.67 u/L
  PHOSPHORUS: 13.93 mg/dL
  POTASSIUM: 6.69 MEQ/L
  SODIUM: 146.3 MEQ/L
  TOTAL BILIRUBIN: 0.23 mg/dL
  TOTAL PROTEIN: 6.3 G/DL
  URIC ACID: 2.2 mg/dL
